What all share (format): physicochemical
Series [1] can be described thus: Solubility in acetonitrile (50 mg added to 1 mL with stirring). The following applies: for solubility observation (in words): 24° C. / room temperature (20-25° C.). Here is the method:
(§1) Dabigatran etexilate mesylate, Form I, 50 mg, was added to acetonitrile (1 mL) with stirring, at 24° C. The product was not soluble under these conditions. The mixture was stirred for 48 hours, filtered and analysed to be Form A of dabigatran etexilate mesylate as determined by powder XRD.
(§2) The solubility of the amorphous form is therefore >50 mg/mL. After approximately 5 minutes a solid crystallized. The mixture was stirred for 48 hours, filtered and analysed to be Form A of dabigatran etexilate mesylate as determined by powder XRD.
(§3) Dabigatran etexilate mesylate, Form A, 50 mg, was added to acetonitrile (1 mL) with stirring, at 24° C. The product was not soluble under these conditions. The mixture was stirred for 48 hours, filtered and analysed to be Form A of dabigatran etexilate mesylate as determined by powder XRD.

A short description of series [2]: Stability assay: slurrying in acetonitrile, solid form by powder XRD. The following applies: acetonitrile 1 mL, 50 mg, 24° C. (room temperature), stirred 48 hours. The protocol:
(§4) Powder diffraction patterns were acquired using a PANalytical, X'Pert diffractometer using CuKalpha-radiation. The system was configured in theta-theta, transmission geometry equipped with a focusing X-ray mirror and PIXcel detector.
as §1, §2, §3

Series [3] can be described thus: Solvent mediated transformation of mixtures of forms in 2-propanol, solid form by powder XRD. The following applies: 2-propanol 0.6 mL, ambient temperature, orbital agitator. The protocol:
as §4
Dabigatran etexilate mesylate, a mixture of Form I, 17 mg and Form A, 15 mg, was suspended in 2-propanol (0.6 mL) and the mixture agitated at ambient temperature using an orbital agitator for 64 hours. The mixture was filtered, dried under vacuum and analysed to be purely Form A of dabigatran etexilate mesylate as determined by powder XRD.
Dabigatran etexilate mesylate, a mixture of Form II, 10 mg and Form A, 15 mg, was suspended in 2-propanol (0.6 mL) and the mixture agitated at ambient temperature using an orbital agitator for 7 days. The mixture was filtered, dried under vacuum and analysed to be purely Form A of dabigatran etexilate mesylate as determined by powder XRD.

Entries after “also recorded” stand apart in the source; their conditions may differ. Structures can show the parent of a compound that is named as a salt. A value given as a limit tells only on which side of the number the result lay.

A word on the solubility: it is the dissolved amount per volume that the medium holds.

In the case of `CCCCCCOC(=O)NC(=N)c1ccc(NCc2nc3cc(C(=O)N(CCC(=O)OCC)c4ccccn4)ccc3n2C)cc1` [amorphous dabigatran etexilate mesylate, dabigatran etexilate mesylate], the “solubility observation (in words)” value in series [1] (50 mg in 1 mL acetonitrile) is recorded as “complete dissolution almost immediately; also recorded: completely dissolved”. In series [1] (50 mg in 1 mL acetonitrile, 24° C., after complete dissolution), the “time until a solid crystallized from the acetonitrile solution” value is listed as “approximately 5 minutes”. The solubility in series [1] (organic solvent or mixture, thermodynamic from solid, acetonitrile, 24° C., 50 mg in 1 mL) was above 50 mg/mL. In addition, in series [2], the “solid form after slurrying (powder XRD)” value was “Form A”.
As for `CCCCCCOC(=O)NC(=N)c1ccc(NCc2nc3cc(C(=O)N(CCC(=O)OCC)c4ccccn4)ccc3n2C)cc1` [dabigatran etexilate mesylate Form A, dabigatran etexilate mesylate], the “solubility observation (in words)” value in series [1] (50 mg in 1 mL acetonitrile) was “not soluble; also recorded: at least partly insoluble”. Further, the “solid form after slurrying (powder XRD)” value in series [2] was “Form A; also recorded: stable”.
Taken in the same sequence, the figures for `CCCCCCOC(=O)NC(=N)c1ccc(NCc2nc3cc(C(=O)N(CCC(=O)OCC)c4ccccn4)ccc3n2C)cc1` [dabigatran etexilate mesylate Form I, dabigatran etexilate mesylate] were “not soluble; also recorded: at least partly insoluble” and “converted entirely into Form A”.
As to `CCCCCCOC(=O)/N=C(\N)c1ccc(NCc2nc3cc(C(=O)N(CCC(=O)OCC)c4ccccn4)ccc3n2C)cc1` [mixture of Form I and Form A, dabigatran etexilate mesylate], the “solid form after slurrying mixture of forms (powder XRD)” value in series [3] (64 hours) is “purely Form A; also recorded: converted entirely into Form A”.
For the molecule `CCCCCCOC(=O)/N=C(\N)c1ccc(NCc2nc3cc(C(=O)N(CCC(=O)OCC)c4ccccn4)ccc3n2C)cc1` [mixture of Form II and Form A, dabigatran etexilate mesylate], the “solid form after slurrying mixture of forms (powder XRD)” value in series [3] (7 days) is on record as “purely Form A; also recorded: converted entirely into Form A”.

For the origin of these results see US9073899B2, “Solid forms of dabigatran etexilate mesylate and processes for their preparation” (ESTEVE QUÍMICA, S.A., priority 2012, dated 2015).
